Reference: patent US12350272B2, “Pyridopyrimidinone derivatives for use as AXL inhibitors” (OSCOTEC INC., priority 2018, dated 2025)
Counter-ions that a name gives are not always drawn. Like-named read-outs stand apart in the source and are kept apart here.

Experiments:
Truncated human Axl = Truncated human Axl (Homo sapiens, UniProt P30530); experiment: Kinase inhibition assay (inhibition of enzymatic Axl kinase activity); format: biochemical
Protocol: Compounds of Formula (I) as obtained above were assayed to measure their capacity to inhibit Axl kinase. Axl belongs to the recently identified TYRO-3, Axl, MERTK (TAM) receptor tyrosine kinase (RTK) family. […] Upon GAS6 binding, Axl homodimerizes and subsequently induces several downstream signaling pathways involved in cell proliferation, migration, invasion, anti-apoptosis, angiogenesis, metastasis, and therapeutic resistance. Upregulation of Axl has been reported in a wide variety of cancer cell lines as well as in cancer specimens from patients with breast cancer, acute leukemia, colorectal cancer, lung cancer, melanoma, ovarian cancer, or prostate cancer, among others.
Compounds of Formula (I) as obtained above were initially diluted to […] in 100% DMSO (CALBIOCHEM™) for storage and made into kinase buffer solution to create a compound concentration ranging from 1 uM and 10 uM. Serial dilutions of the compounds were dispensed into a 96-well plate (GREINER BIOSCIENCES™) at 6 μL each. Truncated human Axl (CARNA BIOSCIENCES™) were diluted in kinase buffer and added to the compound solutions and pre-incubated for 30 minutes at room temperature. […] The reaction mixture was incubated for 1 hour. Following the incubation, the stop solution made with EDTA, water, and Lance detection buffer ([…]™) were added (12 μL each) to stop phosphorylation.

JAK2 = JAK2 (Homo sapiens (Human), UniProt O60674); experiment: Biochemical inhibition of JAK2; conditions: Table 2, range of IC50 value
JAK2, sequence (O60674 whole entry, species assumed): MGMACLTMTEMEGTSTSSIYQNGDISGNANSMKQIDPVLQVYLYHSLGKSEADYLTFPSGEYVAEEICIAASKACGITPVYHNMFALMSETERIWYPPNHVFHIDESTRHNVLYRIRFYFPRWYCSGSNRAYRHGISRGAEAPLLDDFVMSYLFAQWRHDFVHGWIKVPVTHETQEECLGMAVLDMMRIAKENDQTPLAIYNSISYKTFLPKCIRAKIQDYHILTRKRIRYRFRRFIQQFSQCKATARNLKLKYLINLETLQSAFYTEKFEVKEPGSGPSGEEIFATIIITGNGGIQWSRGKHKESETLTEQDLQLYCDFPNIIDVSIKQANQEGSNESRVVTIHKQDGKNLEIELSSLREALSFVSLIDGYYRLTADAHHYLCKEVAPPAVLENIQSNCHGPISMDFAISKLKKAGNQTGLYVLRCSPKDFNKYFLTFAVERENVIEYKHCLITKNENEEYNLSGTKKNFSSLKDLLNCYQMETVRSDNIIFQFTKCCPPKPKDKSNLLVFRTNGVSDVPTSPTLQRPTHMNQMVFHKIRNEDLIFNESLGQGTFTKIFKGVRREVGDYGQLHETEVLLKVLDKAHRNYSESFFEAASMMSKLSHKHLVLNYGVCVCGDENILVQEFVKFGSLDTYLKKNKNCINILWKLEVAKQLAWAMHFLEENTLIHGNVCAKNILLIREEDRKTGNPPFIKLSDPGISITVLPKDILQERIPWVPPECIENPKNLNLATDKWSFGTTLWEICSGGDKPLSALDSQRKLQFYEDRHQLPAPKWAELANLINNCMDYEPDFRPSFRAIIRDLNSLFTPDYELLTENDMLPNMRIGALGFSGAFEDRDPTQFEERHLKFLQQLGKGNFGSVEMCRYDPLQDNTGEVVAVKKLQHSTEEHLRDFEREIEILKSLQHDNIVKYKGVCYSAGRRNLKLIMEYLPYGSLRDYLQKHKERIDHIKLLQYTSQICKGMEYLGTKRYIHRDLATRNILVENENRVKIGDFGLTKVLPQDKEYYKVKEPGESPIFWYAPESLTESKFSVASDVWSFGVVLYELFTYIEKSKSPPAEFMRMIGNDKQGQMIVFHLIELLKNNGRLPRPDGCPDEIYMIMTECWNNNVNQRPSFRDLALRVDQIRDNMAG

MDA-MB-231 cells = experiment: Cell viability assay (ATPLite), MDA-MB-231; format: cell-based, human; conditions: for GI50: Homo sapiens, MDA-MB-231, 72 h, 72 hour incubation
Text: (§1) Axl is a member of the TAM (TYRO3-Axl-MER) family of receptor tyrosine kinases, which, when activated, can increase tumor cell survival, proliferation, migration and invasion, angiogenesis, and tumor-host interactions. Upon GAS6 binding to Axl, Axl subsequently activates the signaling pathways downstream such as phosphoinositide 3-kinase (PI3K), RAt sarcoma (RAS), and extracellular signal regulated kinase (ERK).
(§2) This cell line was maintained with an Roswell Park Memorial Institute (RPMI) medium (HYCLONE™) containing 10% bovine calf serum (BCS; HYCLONE™) supplemented iron. The cells were seeded at 2×10^4 cells in 96-well culture plates, and serially diluted compounds were then added. After a 72 hour incubation period at 37° C., cell viability was measured using the ATPLite 1 step assay (PERKIN-ELMER™) that is based on the quantification of ATP from viable cells.

Hs578T cells = experiment: Cell viability assay (ATPLite), Hs578T; format: cell-based, human; conditions: Homo sapiens, Hs-578T, 72 h, 72 hour incubation
Text: as §1, §2

[1] = Table 2, range of IC50 value, read-out: Axl

Truncated human Axl, sequence (P30530 26-894 limits assumed): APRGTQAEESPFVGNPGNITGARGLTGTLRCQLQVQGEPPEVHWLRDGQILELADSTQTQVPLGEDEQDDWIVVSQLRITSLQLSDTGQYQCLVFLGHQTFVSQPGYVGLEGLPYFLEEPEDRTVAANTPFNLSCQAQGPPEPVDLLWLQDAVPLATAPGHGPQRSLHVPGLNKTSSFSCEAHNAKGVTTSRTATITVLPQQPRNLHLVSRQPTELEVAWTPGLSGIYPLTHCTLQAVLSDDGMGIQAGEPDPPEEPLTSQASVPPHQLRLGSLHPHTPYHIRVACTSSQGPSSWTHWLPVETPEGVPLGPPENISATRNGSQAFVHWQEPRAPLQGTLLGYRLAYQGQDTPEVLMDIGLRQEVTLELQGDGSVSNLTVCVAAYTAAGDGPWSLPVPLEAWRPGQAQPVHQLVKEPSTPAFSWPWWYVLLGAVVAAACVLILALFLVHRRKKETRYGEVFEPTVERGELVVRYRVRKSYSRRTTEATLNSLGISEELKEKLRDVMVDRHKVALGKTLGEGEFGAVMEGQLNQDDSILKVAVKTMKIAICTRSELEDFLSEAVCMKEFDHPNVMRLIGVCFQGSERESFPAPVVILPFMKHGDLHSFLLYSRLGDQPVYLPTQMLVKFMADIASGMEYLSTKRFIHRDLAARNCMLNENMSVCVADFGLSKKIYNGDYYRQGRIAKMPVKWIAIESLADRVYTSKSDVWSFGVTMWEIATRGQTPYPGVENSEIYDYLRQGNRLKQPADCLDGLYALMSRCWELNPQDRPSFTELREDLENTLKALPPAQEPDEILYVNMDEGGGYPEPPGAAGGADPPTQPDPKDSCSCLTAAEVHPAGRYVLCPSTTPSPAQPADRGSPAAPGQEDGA

Compound | IC50 (Truncated human Axl; Table 1, read-out: Axl (IC50)) [nM] | further results
CN1CCC(Nc2nc(Nc3ccc(Oc4cccc(F)c4)c(F)c3)c3c(=O)[nH]cc(Br)c3n2)CC1 [Compound 247, 8-bromo-4-((3-fluoro-4-(3-fluorophenoxy)phenyl)amino)-2-((1-methylpiperidin-4-yl)amino)pyrido[4,3-d]pyrimidin-5(6H)-one hydrochloride] | 11 to 100 | –
CN1CCC(Nc2nc(Nc3ccc(Oc4ccccc4)c(F)c3)c3c(=O)[nH]cc(Br)c3n2)CC1 [Compound 245, 8-bromo-4-((3-fluoro-4-phenoxyphenyl)amino)-2-((1-methylpiperidin-4-yl)amino)pyrido[4,3-d]pyrimidin-5(6H)-one hydrochloride] | 11 to 100 | –
Cc1ccc(Oc2ccc(Nc3nc(NC4CCN(C)CC4)nc4c(Br)c[nH]c(=O)c34)cc2)cc1 [Compound 231, 8-bromo-2-((1-methylpiperidin-4-yl)amino)-4-((4-(p-tolyloxy)phenyl)amino)pyrido[4,3-d]pyrimidin-5(6H)-one hydrochloride] | 11 to 100 | –
Cc1ccccc1Oc1ccc(Nc2nc(NC3CCN(C)CC3)nc3c(Br)c[nH]c(=O)c23)cc1 [Compound 239, 8-bromo-2-((1-methylpiperidin-4-yl)amino)-4-((4-(o-tolyloxy)phenyl)amino)pyrido[4,3-d]pyrimidin-5(6H)-one hydrochloride] | 11 to 100 | –
CN1CCC(Nc2nc(Nc3ccc(Oc4ccccc4)cc3)c3c(=O)[nH]cc(Br)c3n2)CC1 [Compound 222, 8-bromo-2-((1-methylpiperidin-4-yl)amino)-4-((4-phenoxyphenyl)amino)pyrido[4,3-d]pyrimidin-5(6H)-one] | – | IC50 (JAK2): 101 to 1000 nM
CN1CCC(Nc2nc(Nc3ccc(Oc4ccc(F)cc4)cc3)c3c(=O)[nH]cc(Br)c3n2)CC1 [Compound 232, 8-bromo-4-((4-(4-fluorophenoxy)phenyl)amino)-2-((1-methylpiperidin-4-yl)amino)pyrido[4,3-d]pyrimidin-5(6H)-one hydrochloride] | 11 to 100 | –
CN1CCC(Nc2nc(Nc3ccc(OCc4ccccc4)cc3)c3c(=O)[nH]cc(Br)c3n2)CC1 [Compound 221, 4-((4-(benzyloxy)phenyl)amino)-8-bromo-2-((1-methylpiperidin-4-yl)amino)pyrido[4,3-d]pyrimidin-5(6H)-one] | 101 to 1000 | –
CCN1CCC(Nc2nc(Nc3ccc(Oc4ccccc4)cc3)c3c(=O)[nH]cc(Br)c3n2)CC1 [Compound 249, 8-bromo-2-(1-ethylpiperidin-4-ylamino)-4-(4-phenoxyphenylamino)pyrido[4,3-d]pyrimidin-5(6H)-one] | 11 to 100 | –
CN1CCC(Nc2nc(Nc3ccc(OC4CCCCC4)cc3)c3c(=O)[nH]cc(Br)c3n2)CC1 [Compound 228, 8-bromo-4-((4-(cyclohexyloxy)phenyl)amino)-2-((1-methylpiperidin-4-yl)amino)pyrido[4,3-d]pyrimidin-5(6H)-one] | 101 to 1000 | IC50 (Truncated human Axl; [1]): 101 to 1000 nM; IC50 (JAK2): 101 to 1000 nM
CC(C)c1ccc(Oc2ccc(Nc3nc(NC4CCN(C)CC4)nc4c(Br)c[nH]c(=O)c34)cc2)cc1 [Compound 236, 8-bromo-4-((4-(4-isopropylphenoxy)phenyl)amino)-2-((1-methylpiperidin-4-yl)amino)pyrido[4,3-d]pyrimidin-5(6H)-one hydrochloride] | 11 to 100 | –
CC(C)N1CCC(Nc2nc(Nc3ccc(Oc4ccccc4)cc3)c3c(=O)[nH]cc(Br)c3n2)CC1 [Compound 248, 8-bromo-2-(1-isopropylpiperidin-4-ylamino)-4-(4-phenoxyphenylamino)pyrido[4,3-d]pyrimidin-5(6H)-one] | 11 to 100 | –
CC(C)c1ccc(Oc2ccc(Nc3nc(NC4CCN(C)CC4)nc4c(Br)c[nH]c(=O)c34)cc2)cc1 [Compound 230, 8-bromo-4-((4-(4-isopropylphenoxy)phenyl)amino)-2-((1-methylpiperidin-4-yl)amino)pyrido[4,3-d]pyrimidin-5(6H)-one] | 11 to 100 | –
CN1CCC(Nc2nc(Nc3ccc(OCC4CCCC4)cc3)c3c(=O)[nH]cc(Br)c3n2)CC1 [Compound 227, 8-bromo-4-((4-(cyclopentylmethoxy)phenyl)amino)-2-((1-methylpiperidin-4-yl)amino)pyrido[4,3-d]pyrimidin-5(6H)-one] | 101 to 1000 | –
Cc1ccc(Oc2ccc(Nc3nc(NC4CCN(C)CC4)nc4c(Br)c[nH]c(=O)c34)cc2)cc1 [Compound 225, 8-bromo-2-((1-methylpiperidin-4-yl)amino)-4-((4-(p-tolyloxy)phenyl)amino)pyrido[4,3-d]pyrimidin-5(6H)-one] | 11 to 100 | IC50 (Truncated human Axl; [1]): 11 to 100 nM; IC50 (JAK2): 1000 to 10000 nM
CN1CCC(Nc2nc(Nc3ccc(OC4CCCC4)cc3)c3c(=O)[nH]cc(Br)c3n2)CC1 [Compound 223, 8-bromo-4-((4-(cyclopentyloxy)phenyl)amino)-2-((1-methylpiperidin-4-yl)amino)pyrido[4,3-d]pyrimidin-5(6H)-one] | 101 to 1000 | IC50 (Truncated human Axl; [1]): 101 to 1000 nM; IC50 (JAK2): 101 to 1000 nM
CN1CCC(Nc2nc(Nc3ccc(Oc4cc(F)cc(F)c4)cc3)c3c(=O)[nH]cc(Br)c3n2)CC1 [Compound 243, 8-bromo-4-((4-(3,5-difluorophenoxy)phenyl)amino)-2-((1-methylpiperidin-4-yl)amino)pyrido[4,3-d]pyrimidin-5(6H)-one hydrochloride] | 11 to 100 | –
Cc1cc(Nc2nc(NC3CCN(C)CC3)nc3c(Br)c[nH]c(=O)c23)ccc1Oc1ccccc1 [Compound 246, 8-bromo-4-((3-methyl-4-phenoxyphenyl)amino)-2-((1-methylpiperidin-4-yl)amino)pyrido[4,3-d]pyrimidin-5(6H)-one hydrochloride] | 11 to 100 | –
CN1CCC(Nc2nc(Nc3ccc(OC4CCCCC4)cc3)c3c(=O)[nH]cc(Cl)c3n2)CC1 [Compound 229, 8-chloro-4-((4-(cyclohexyloxy)phenyl)amino)-2-((1-methylpiperidin-4-yl)amino)pyrido[4,3-d]pyrimidin-5(6H)-one] | 101 to 1000 | –
CN1CCC(Nc2nc(Nc3ccc(Oc4ccc(Cl)cc4)cc3)c3c(=O)[nH]cc(Br)c3n2)CC1 [Compound 242, 8-bromo-4-((4-(4-chlorophenoxy)phenyl)amino)-2-((1-methylpiperidin-4-yl)amino)pyrido[4,3-d]pyrimidin-5(6H)-one hydrochloride] | 11 to 100 | –
CN1CCC(Nc2nc(Nc3ccc(OCc4ccccc4)cc3)c3c(=O)[nH]cc(Br)c3n2)CC1 [Compound 234, 4-((4-(benzyloxy)phenyl)amino)-8-bromo-2-((1-methylpiperidin-4-yl)amino)pyrido[4,3-d]pyrimidin-5(6H)-one hydrochloride] | 101 to 1000 | –
CN1CCC(Nc2nc(Nc3ccc(OCC4CCCC4)cc3)c3c(=O)[nH]cc(Br)c3n2)CC1 [Compound 235, 8-bromo-4-((4-(cyclopentylmethoxy)phenyl)amino)-2-((1-methylpiperidin-4-yl)amino)pyrido[4,3-d]pyrimidin-5(6H)-one hydrochloride] | 101 to 1000 | GI50 (MDA-MB-231 cells): 1100 to 3000 nM; GI50 (Hs578T cells): 1100 to 3000 nM
CN1CCC(Nc2nc(Nc3ccc(OCC4CCCCC4)cc3)c3c(=O)[nH]cc(Br)c3n2)CC1 [Compound 224, 8-bromo-4-((4-(cyclohexylmethoxy)phenyl)amino)-2-((1-methylpiperidin-4-yl)amino)pyrido[4,3-d]pyrimidin-5(6H)-one] | 101 to 1000 | –
Cc1cc(Nc2nc(NC3CCN(C)CC3)nc3c(Br)c[nH]c(=O)c23)ccc1Oc1cccc(F)c1 [Compound 244, 8-bromo-4-((4-(3-fluorophenoxy)-3-methylphenyl)amino)-2-((1-methylpiperidin-4-yl)amino)pyrido[4,3-d]pyrimidin-5(6H)-one hydrochloride] | 11 to 100 | –
CN1CCC(Nc2nc(Nc3ccc(OC4CCCC4)cc3)c3c(=O)[nH]cc(Br)c3n2)CC1.Cl [Compound 237, 8-bromo-4-((4-(cyclopentyloxy)phenyl)amino)-2-((1-methylpiperidin-4-yl)amino)pyrido[4,3-d]pyrimidin-5(6H)-one hydrochloride] | 101 to 1000 | GI50 (MDA-MB-231 cells): 1100 to 3000 nM; inhibition level in Axl-harboring breast cancer cell lines (MDA-MB-231 cells; compared with references ASP2215 and R428, MDA-MB-231 and Hs578T): greater than those exhibited by reference ASP2215 and R428; GI50 (Hs578T cells): 100 to 1000 nM
O=c1[nH]cc(Br)c2nc(NC3CCN(CC(F)(F)F)CC3)nc(Nc3ccc(Oc4ccccc4)cc3)c12 [Compound 250, 8-bromo-4-(4-phenoxyphenylamino)-2-(1-(2,2,2-trifluoroethyl)piperidin-4-ylamino)pyrido[4,3-d]pyrimidin-5(6H)-one] | 101 to 1000 | –
